In DBAASP one finds MIC data, which are given here for seven compounds.

Among the test systems are Candida albicans MDM8; Escherichia coli SBS 363; Micrococcus luteus A270; Escherichia coli 078; Escherichia coli 987P; Escherichia coli K88; Escherichia coli K99; Escherichia coli UB1005; Escherichia coli W3110.
Test in all cases: ≥ marks a high value that may be exact or a test limit, other limits are often not marked, values filed in µg/mL are converted to µM
The subject of test [1] is Bacillus megaterium ATCC 10778.
The subject of test [2] is Bacillus subtilis ATCC 6633.
Test [3] deals with Candida tropicalis IOC 4560.
For test [4], the system named is Enterobacter cloacae beta-12.
Test [5] has as its system Pseudomonas aeruginosa ATCC 27853.
The subject of test [6] is Serratia marcescens ATCC 4112.
The subject of test [7] is Staphylococcus aureus ATCC 29213.
For test [8], the system named is Aspergillus flavus KCTC 6905.
The test system of test [9] is Aspergillus fumigatus KCTC 6145.
Test [10] relates to Candida albicans KCTC 7270.
In test [11] the test system is Candida krusei CCARM 14017.
The subject of test [12] is Candida parapsilosis CCARM 14016.
Test [13] deals with Candida tropicalis KCTC 7221.
In test [14] the test system is Fusarium verticillioides KCTC 6149.
The test system of test [15] is Trichosporon beigelii KCTC 7707.
Test [16] deals with Candida albicans CGMCC 2.2086.
The test system of test [17] is Candida parapsilosis CGMCC 2.3989.
The subject of test [18] is Candida tropicalis CGMCC 2.1975.
For test [19], the system named is Escherichia coli ATCC 25922.
For test [20], the system named is Lacticaseibacillus rhamnosus 7469.
Test [21] deals with Lactiplantibacillus plantarum 8014.
In test [22] the test system is Pseudomonas aeruginosa PAO1.
For test [23], the system named is Salmonella enterica subsp. enterica serovar Typhimurium ATCC 14028.
Test [24] relates to Salmonella enterica subsp. enterica serovar Typhimurium C77-31.
Test [25] deals with Staphylococcus aureus ATCC 25923.
For test [26], the system named is Staphylococcus epidermidis ATCC 12228.
Test [27] concerns Klebsiella pneumoniae ATCC BAA-1705.

SMILES strings stand for the structures. Converted amounts (≈) assume the structure as drawn. “And” between values parts separate entries of the source, which are not always exact repeats. Equal entries are not always repeated. Bounds are passed on as bounds.

Consider `CC(C)C[C@H](NC(=O)[C@H](C)NC(=O)CNC(=O)[C@H](CC(C)C)NC(=O)[C@@H](N)Cc1ccccc1)C(=O)N[C@@H](Cc1c[nH]c2ccccc12)C(=O)N[C@@H](CC(N)=O)C(=O)N[C@H](C(=O)N[C@@H](Cc1ccccc1)C(=O)N[C@@H](CCCCN)C(=O)N[C@@H](CO)C(=O)N[C@H](C(=O)N[C@@H](Cc1ccccc1)C(N)=O)C(C)C)C(C)C` [FLGALWNVFKSVF], for which the MIC (as a rule, the smallest concentration in the dilution series that meets the test's criterion for growth inhibition) in [1] was 1.6 µM (≈ 2.44 µg/mL); in [2], 0.8 µM (≈ 1.22 µg/mL); in the test on Candida albicans MDM8, 6.3 µM (≈ 9.62 µg/mL); in test [3], 1.6 µM (≈ 2.44 µg/mL); in test [4], no less than 50 µM; in the test on Escherichia coli SBS 363, 3.1 µM (≈ 4.73 µg/mL). In addition, the MIC against Micrococcus luteus A270 is 0.8 µM (≈ 1.22 µg/mL); in [5] it was greater than 50 µM; in [6], 0.4 µM (≈ 0.611 µg/mL); in [7], 0.8 µM (≈ 1.22 µg/mL).
As to `CC[C@H](C)[C@H](NC(=O)CNC(=O)[C@H](CCC(N)=O)NC(=O)[C@H](C)NC(=O)[C@@H](NC(=O)[C@H](CCCCN)NC(=O)[C@H](CCCCN)NC(=O)[C@H](CC(C)C)NC(=O)[C@H](C)NC(=O)[C@H](CC(N)=O)NC(=O)[C@H](CC(C)C)NC(=O)CN)C(C)C)C(=O)N[C@@H](Cc1cnc[nH]1)C(=O)N[C@@H](CCC(=O)O)C(=O)N[C@@H](C)C(=O)N[C@@H](C)C(=O)N[C@@H](CCCCN)C(=O)N[C@@H](CC(C)C)C(=O)N[C@H](C(=O)N[C@@H](CC(N)=O)C(=O)N[C@@H](CC(N)=O)C(=O)N[C@@H](Cc1cnc[nH]1)C(=O)N[C@H](C(=O)N[C@@H](CCC(N)=O)C(N)=O)C(C)C)[C@@H](C)CC` [GLNALKKVAQGIHEAAKLINNHVQ], the MIC in test [8] was ≥ 32 µM and 16 µM; in [9], ≥ 32 µM and 16 µM; in test [10] it was 4 µM and 8 µM; in [11], 6 µM and 8 µM; in test [12], no less than 64 µM; in test [13], 2 µM and 1 µM. Besides, the MIC in [14] is no less than 32 µM; in test [15], 1.5 µM and 1 µM.
Turning to `CC[C@H](C)[C@H](NC(=O)[C@H](C)NC(=O)[C@H](CCC(=O)O)NC(=O)[C@H](Cc1cnc[nH]1)NC(=O)[C@H](C)NC(=O)CNC(=O)[C@H](CCC(N)=O)NC(=O)[C@H](Cc1ccccc1)NC(=O)[C@@H](NC(=O)[C@H](CCCCN)NC(=O)[C@H](CCCCN)NC(=O)[C@H](CC(C)C)NC(=O)[C@H](C)NC(=O)[C@H](CC(N)=O)NC(=O)[C@H](CC(C)C)NC(=O)CN)C(C)C)C(=O)N[C@@H](CCCCN)C(=O)N[C@@H](CC(C)C)C(=O)N[C@@H](C)C(=O)N[C@@H](CC(N)=O)C(=O)N[C@@H](CC(N)=O)C(=O)N[C@@H](Cc1cnc[nH]1)C(=O)N[C@H](C(=O)N[C@@H](CCC(N)=O)C(N)=O)C(C)C` [GLNALKKVFQGAHEAIKLANNHVQ], the MIC in test [8] is no less than 64 µM; in test [10] it was 8 µM and 16 µM; in test [11], 8 µM (≈ 20.8 µg/mL); in test [12] it was no less than 64 µM; in test [13] it was 2 µM (≈ 5.2 µg/mL); in [14] it was no less than 64 µM. In addition, the minimal inhibitory concentration (MIC) in [15] is 6 µM and 2 µM.
As to `CC[C@H](C)[C@H](N)C(=O)N[C@@H](Cc1cnc[nH]1)C(=O)N[C@@H](Cc1cnc[nH]1)C(=O)N[C@H](C(=O)N[C@@H](Cc1cnc[nH]1)C(=O)N[C@@H](Cc1cnc[nH]1)C(=O)N[C@@H](Cc1cnc[nH]1)C(N)=O)[C@@H](C)CC` [IHHIHHH], the MIC is no less than 64 µM in [16]; no less than 64 µM in test [17]; no less than 64 µM in test [18]; no less than 64 µM in the test with Escherichia coli 078; no less than 64 µM in the test on Escherichia coli 987P; greater than 64 µM in [19]. The MIC against Escherichia coli K88 was no less than 64 µM; against Escherichia coli K99, no less than 64 µM; in the test on Escherichia coli UB1005 it was no less than 64 µM; in test [20], no less than 64 µM; in test [21] it was no less than 64 µM; in [5], greater than 64 µM. The MIC in test [22] is greater than 64 µM; in [23] it was greater than 64 µM; in test [24] it was no less than 64 µM; in [25], 64 µM (≈ 59.5 µg/mL); in test [7], greater than 64 µM; in [26] it was greater than 64 µM.
In the case of `CC[C@H](C)[C@H](N)C(=O)N[C@@H](Cc1c[nH]c2ccccc12)C(=O)N[C@@H](Cc1c[nH]c2ccccc12)C(=O)N[C@@H](C)C(=O)N[C@@H](CCCCN)C(=O)N[C@@H](Cc1c[nH]c2ccccc12)C(=O)NCC(=O)N[C@@H](CC(C)C)C(=O)N[C@@H](CCCCN)C(=O)N[C@@H](CC(C)C)C(=O)N[C@@H](CC(C)C)C(=O)N[C@@H](CCCN=C(N)N)C(=O)N[C@@H](Cc1ccc(O)cc1)C(=O)N[C@@H](CCCN=C(N)N)C(=O)N[C@@H](CCCN=C(N)N)C(=O)N[C@@H](Cc1c[nH]c2ccccc12)C(=O)N[C@@H](Cc1ccc(O)cc1)C(=O)O` [IWWAKWGLKLLRYRRWY], the MIC with Escherichia coli W3110 came out at 1 µM (≈ 2.39 µg/mL); in test [27] it was 4 µM (≈ 9.58 µg/mL).
For `CC[C@H](C)[C@H](N)C(=O)N[C@@H](Cc1c[nH]c2ccccc12)C(=O)N[C@@H](Cc1c[nH]c2ccccc12)C(=O)N[C@@H](C)C(=O)N[C@@H](CCCCN)C(=O)N[C@@H](Cc1c[nH]c2ccccc12)C(=O)NCC(=O)N[C@@H](CC(C)C)C(=O)N[C@@H](CCCCN)C(=O)N[C@@H](Cc1c[nH]c2ccccc12)C(=O)N[C@@H](CC(C)C)C(=O)N[C@@H](CCCN=C(N)N)C(=O)N[C@@H](Cc1ccc(O)cc1)C(=O)N[C@@H](CCCN=C(N)N)C(=O)N[C@@H](CCCN=C(N)N)C(=O)N[C@H](C(=O)N[C@@H](Cc1ccc(O)cc1)C(=O)O)[C@@H](C)CC` [IWWAKWGLKWLRYRRIY] the same measures were 2 µM (≈ 4.79 µg/mL) and 16 µM (≈ 38.3 µg/mL).
Regarding `CC(C)C[C@H](NC(=O)[C@H](C)NC(=O)CNC(=O)[C@H](CC(C)C)NC(=O)[C@@H](N)CCCCN)C(=O)N[C@@H](Cc1c[nH]c2ccccc12)C(=O)N[C@@H](CC(N)=O)C(=O)N[C@H](C(=O)N[C@@H](C)C(=O)N[C@@H](CCCCN)C(=O)N[C@@H](CO)C(=O)N[C@H](C(=O)N[C@@H](Cc1ccccc1)C(N)=O)C(C)C)C(C)C` [KLGALWNVAKSVF], the minimal inhibitory concentration (MIC) in [1] is 6.3 µM (≈ 9.02 µg/mL); in the test with Candida albicans MDM8, 3.1 µM (≈ 4.44 µg/mL); in test [3] it was 6.3 µM (≈ 9.02 µg/mL); in [4], no less than 50 µM; in the test with Escherichia coli SBS 363, no less than 50 µM; against Micrococcus luteus A270, 6.3 µM (≈ 9.02 µg/mL). Further, the minimal inhibitory concentration (MIC) in [6] was 6.3 µM (≈ 9.02 µg/mL); in test [7], 50 µM (≈ 71.6 µg/mL); in test [26] it was greater than 50 µM.
